For series [1], the system named is CT26 mouse syngeneic colon cancer model. Kind of series: CT26 mouse syngeneic colon cancer model, prior non-clinical study. In kind it is in vivo. The note with it: single agents.
Series [2] relates to OCI-Ly10 human lymphoma xenografts. Nature of the series: Antitumor activity in SCID mice bearing OCI-Ly10 human lymphoma xenografts, bendamustine and rituximab (Example 6). The note with it: Day 21, citrate. It is filed as in vivo, mouse. In general terms: Xenograft models place foreign cells or tissue in a host animal.
The conditions of series [3]: mouse, in vivo, po, 60 mg/kg.

Structures are written as SMILES. Counter-ions that a name gives are not always drawn.

Take `Cn1cc(-c2nc(N[C@@H]3CCCC[C@@H]3N)c(F)c3c2C(=O)NC3)cn1` [Compound A, 6-((1R,2S)-2-aminocyclohexylamino)-7-fluoro-4-(1-methyl-1H-pyrazol-4-yl)-1H-pyrrolo[3,4-c]pyridine-3 (2H)-one citrate]: the “animals survived to 30 days after the last dose” value in series [1] came out at 20%. In addition, the TGI (usually the reduction of tumour growth relative to the control group) in series [2] (Compound A 30 mg/kg PO QD x21, bendamustine 1 mg/kg IV BIW, rituximab 1 mg/kg IV QW x3, alone or combined) turned out to be 24.2%; in series [2] (Compound A 60 mg/kg PO QD x21, 60 mg/kg) it was 51.1%. Further, the “Maximum mean % BWL” value in series [3] is 0%.

The values are drawn from patent US20190231757A1, “COMBINATION OF SPLEEN TYROSINE KINASE INHIBITORS AND OTHER THERAPEUTIC AGENTS” (Takeda Pharmaceutical Company Limited, priority 2016, published 2019).
